Data from ChEMBL document CHEMBL1125723 (J Med Chem, 1991).

How the values were obtained:
[1] = Ability to inhibit WI-L2 […] leukemia tumor cell growth in culture after 48 hr of its exposure.; type: functional, cell-based; settings: Homo sapiens, WIL2, 48 h
L1210 [2] = experiment: Ability to inhibit L1210 murine leukemia tumor cell growth in culture after 48 hr of its exposure.; type: functional, cell-based; settings: Mus musculus, L1210, 48 h
Dihydrofolate reductase = biological target: T1, Dihydrofolate reductase (Homo sapiens, UniProt P00374)
T1 sequence (P00374 whole entry): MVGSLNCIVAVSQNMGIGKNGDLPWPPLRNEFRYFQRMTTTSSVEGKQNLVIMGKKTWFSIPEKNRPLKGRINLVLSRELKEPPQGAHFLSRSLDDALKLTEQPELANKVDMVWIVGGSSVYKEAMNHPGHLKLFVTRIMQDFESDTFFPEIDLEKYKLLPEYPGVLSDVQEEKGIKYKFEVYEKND
Description: Ability to inhibit purified Dihydrofolate reductase from human leukemic lymphoblasts was determined spectrophotometrically at 340 nM.

L1210 [3] = experiment: Ability to inhibit MTX-resistant L1210/R81 tumor cell growth was determined.; settings: Mus musculus

| SMILES | IC50 [1] | IC50 (L1210 [2]) | IC50 (Dihydrofolate reductase) | IC50 (L1210 [3]) |
| --- | --- | --- | --- | --- |
| C=C(CC(NC(=O)c1ccc(N(C)Cc2cnc3nc(N)nc(N)c3n2)cc1)C(=O)O)C(=O)O (stereo unspecified) | 48 nM | 870 nM | 44 nM | – |
| CN(Cc1cnc2nc(N)nc(N)c2n1)c1ccc(C(=O)NC(CC(C#N)C(=O)O)C(=O)O)cc1 (stereo unspecified) | – | 18 nM | 57 nM | – |
| C=C(CC(NC(=O)c1ccc(NCc2cnc3nc(N)nc(N)c3n2)cc1)C(=O)O)C(=O)O (stereo unspecified) | 20 nM | 29 nM | 88 nM | – |
| Nc1nc(N)c2nc(CNc3ccc(C(=O)N[C@@H](CCC(=O)O)C(=O)O)cc3)cnc2n1 [AMINOPTERIN] | 7.1 nM | – | – | – |
| CN(Cc1cnc2nc(N)nc(N)c2n1)c1ccc(C(=O)N[C@@H](CCC(=O)O)C(=O)O)cc1 [METHOTREXATE] | 13 nM | – | – | 200000 nM |
